Measurements taken from patent US8722849B2, “Polypeptides” (Novo Nordisk A/S, priority 2011, dated 2014).
Starred links: 1 amine or outer side, 2 acyl side, 3 side chain; linkers in the order of their positions; H or OH if unused. Positions of bridges follow the written chain, without caps; N, C: chain ends. Residues, ends and D or L forms follow the SMILES beside them. *: point of attachment. C20 diacid = O=C(O)CCCCCCCCCCCCCCCCCCC(=O)*; C18 diacid = O=C(O)CCCCCCCCCCCCCCCCC(=O)*; γGlu = O=C(O)[C@H](CCC(=O)[*:2])N[*:1]

Legend:
[1] = Assay (IX) pK, determination of T½ in mini-pig; format: in vivo, Göttingen mini-pigs; settings: male, Göttingen, iv, 2 nmol/kg; minipig; plasma terminal half-life
[2] = tested on: food intake; assay: Assay (I) efficacy testing on appetite (food intake), ad libitum fed rat model; format: in vivo, Sprague Dawley (SD) rats; settings: 3 nmol/kg
Method in brief: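 Food consumption was logged per animal every hour up to 7 h and again at 24 h (occasionally 48 h) after a single 0.01–3 mg/kg dose, given sc, po or ip at dark-phase onset. Ad libitum fed SD rats, 200–250 g, kept on inverted light/dark cycle; vehicle group included, outliers removed by Grubbs test.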

SMILES | half-life [1] | Food intake reduction 0-24 h 3 nmol/kg (%) [2] | Food intake reduction 24-48 h 3 nmol/kg (%) [2]
CC[C@H](C)[C@H](NC(=O)[C@@H]1CCCN1C(=O)CNC(=O)[C@H](Cc1ccccc1)NC(=O)[C@H](CC(N)=O)NC(=O)[C@H](CC(N)=O)NC(=O)[C@H](CO)NC(=O)[C@H](CO)NC(=O)[C@H](Cc1c[nH]cn1)NC(=O)[C@H](Cc1c[nH]cn1)NC(=O)[C@H](CC(C)C)NC(=O)[C@H](Cc1ccccc1)NC(=O)[C@H](CCC(=O)O)NC(=O)[C@H](C)NC(=O)[C@H](CC(C)C)NC(=O)[C@H](CCCNC(=N)N)NC(=O)[C@H](CCC(N)=O)NC(=O)[C@@H](NC(=O)[C@H](C)NC(=O)[C@@H]1CSSC[C@H](NC(=O)[C@H](CCCCN)NC(=O)CC[C@H](NC(=O)CCCCCCCCCCCCCCCCCCC(=O)O)C(=O)O)C(=O)N[C@@H](CC(N)=O)C(=O)N[C@@H]([C@@H](C)O)C(=O)N[C@@H](C)C(=O)N[C@@H]([C@@H](C)O)C(=O)N1)[C@@H](C)O)C(=O)N[C@@H](CC(C)C)C(=O)N1CCC[C@H]1C(=O)N1CCC[C@H]1C(=O)N[C@H](C(=O)N[C@@H](CC(N)=O)C(=O)N[C@H](C(=O)NCC(=O)N[C@@H](CO)C(=O)N[C@@H](CC(N)=O)C(=O)N[C@H](C(=O)N[C@@H](Cc1ccc(O)cc1)C(N)=O)[C@@H](C)O)C(C)C)[C@@H](C)O [Example 27, N-alpha-[(S)-4-Carboxy-4-(19-carboxynonadecanoylamino)butyryl]-[Glu14,His17]-pramlintide] ({C20 diacid-γGlu}-KCNTATCATQRLAEFLHHSSNNFGPILPPTNVGSNTY-NH2; disulfide 2-7 (inferred)) | 90 h | 56% | 53%
CC[C@H](C)[C@H](NC(=O)[C@@H]1CCCN1C(=O)CNC(=O)[C@H](Cc1ccccc1)NC(=O)[C@H](CC(N)=O)NC(=O)[C@H](CC(N)=O)NC(=O)[C@H](CO)NC(=O)[C@H](CO)NC(=O)[C@H](Cc1c[nH]cn1)NC(=O)[C@H](CCCNC(=N)N)NC(=O)[C@H](CC(C)C)NC(=O)[C@H](Cc1ccccc1)NC(=O)[C@H](CCC(=O)O)NC(=O)[C@H](C)NC(=O)[C@H](CC(C)C)NC(=O)[C@H](CCCNC(=N)N)NC(=O)[C@H](CCC(N)=O)NC(=O)[C@@H](NC(=O)[C@H](C)NC(=O)[C@@H]1CSSC[C@H](NC(=O)[C@H](CCCCN)NC(=O)CC[C@H](NC(=O)CCCCCCCCCCCCCCCCCCC(=O)O)C(=O)O)C(=O)N[C@@H](CC(N)=O)C(=O)N[C@@H]([C@@H](C)O)C(=O)N[C@@H](C)C(=O)N[C@@H]([C@@H](C)O)C(=O)N1)[C@@H](C)O)C(=O)N[C@@H](CC(C)C)C(=O)N1CCC[C@H]1C(=O)N1CCC[C@H]1C(=O)N[C@H](C(=O)N[C@@H](CC(N)=O)C(=O)N[C@H](C(=O)NCC(=O)N[C@@H](CO)C(=O)N[C@@H](CC(N)=O)C(=O)N[C@H](C(=O)N1CCC[C@H]1C(N)=O)[C@@H](C)O)C(C)C)[C@@H](C)O [Example 53, N-alpha-[(S)-4-Carboxy-4-(19-carboxynonadecanoylamino)butyryl]-[Glu14,Arg17,Pro37]-pramlintide] | 98 h | 40% | 28%
CC[C@H](C)[C@H](NC(=O)[C@@H]1CCCN1C(=O)CNC(=O)[C@H](Cc1ccccc1)NC(=O)[C@H](CC(N)=O)NC(=O)[C@H](CC(N)=O)NC(=O)[C@H](CO)NC(=O)[C@H](CO)NC(=O)[C@H](Cc1c[nH]cn1)NC(=O)[C@H](Cc1c[nH]cn1)NC(=O)[C@H](CC(C)C)NC(=O)[C@H](Cc1ccccc1)NC(=O)[C@H](CCC(=O)O)NC(=O)[C@H](C)NC(=O)[C@H](CC(C)C)NC(=O)[C@H](CCCNC(=N)N)NC(=O)[C@H](CCC(N)=O)NC(=O)[C@@H](NC(=O)[C@H](C)NC(=O)[C@@H]1CSSC[C@H](NC(=O)[C@H](CCCNC(=N)N)NC(=O)CC[C@H](NC(=O)CCCCCCCCCCCCCCCCCCC(=O)O)C(=O)O)C(=O)N[C@@H](CC(N)=O)C(=O)N[C@@H]([C@@H](C)O)C(=O)N[C@@H](C)C(=O)N[C@@H]([C@@H](C)O)C(=O)N1)[C@@H](C)O)C(=O)N[C@@H](CC(C)C)C(=O)N1CCC[C@H]1C(=O)N1CCC[C@H]1C(=O)N[C@H](C(=O)N[C@@H](CC(N)=O)C(=O)N[C@H](C(=O)NCC(=O)N[C@@H](CO)C(=O)N[C@@H](CC(N)=O)C(=O)N[C@H](C(=O)N1CCC[C@H]1C(N)=O)[C@@H](C)O)C(C)C)[C@@H](C)O [Example 96, N-alpha-[(S)-4-Carboxy-4-(19-carboxynonadecanoylamino)butyryl]-[Arg1,Glu14,His17,Pro37]-pramlintide] ({C20 diacid-γGlu}-RCNTATCATQRLAEFLHHSSNNFGPILPPTNVGSNTP-NH2; disulfide 2-7 (inferred)) | 107 h | 69% | 89%
CC[C@H](C)[C@H](NC(=O)[C@@H]1CCCN1C(=O)CNC(=O)[C@H](Cc1ccccc1)NC(=O)[C@H](CC(N)=O)NC(=O)[C@H](CC(N)=O)NC(=O)[C@H](CO)NC(=O)[C@H](CO)NC(=O)[C@H](Cc1c[nH]cn1)NC(=O)[C@H](Cc1c[nH]cn1)NC(=O)[C@H](CC(C)C)NC(=O)[C@H](Cc1ccccc1)NC(=O)[C@H](CCC(=O)O)NC(=O)[C@H](C)NC(=O)[C@H](CC(C)C)NC(=O)[C@H](CCCNC(=N)N)NC(=O)[C@H](CCC(N)=O)NC(=O)[C@@H](NC(=O)[C@H](C)NC(=O)[C@@H]1CSSC[C@H](NC(=O)[C@H](CCCCN)NC(=O)CC[C@H](NC(=O)CCCCCCCCCCCCCCCCC(=O)O)C(=O)O)C(=O)N[C@@H](CC(N)=O)C(=O)N[C@@H]([C@@H](C)O)C(=O)N[C@@H](C)C(=O)N[C@@H]([C@@H](C)O)C(=O)N1)[C@@H](C)O)C(=O)N[C@@H](CC(C)C)C(=O)N1CCC[C@H]1C(=O)N1CCC[C@H]1C(=O)N[C@H](C(=O)N[C@@H](CC(N)=O)C(=O)N[C@H](C(=O)NCC(=O)N[C@@H](CO)C(=O)N[C@@H](Cc1c[nH]cn1)C(=O)N[C@H](C(=O)N[C@@H](Cc1ccc(O)cc1)C(N)=O)[C@@H](C)O)C(C)C)[C@@H](C)O [Example 59, N-alpha-[(S)-4-Carboxy-4-(17-carboxyheptadecanoylamino)butyryl]-[Glu14,His17,His35]-pramlintide] ({C18 diacid-γGlu}-KCNTATCATQRLAEFLHHSSNNFGPILPPTNVGSHTY-NH2; disulfide 2-7 (inferred)) | 59 h | 59% | 27%
